In patent US5037812A, “Tumor cell growth-inhibiting pharmaceutical compositions containing phosphino-hydrocarbon-gold, silver or copper complexes” (priority 1986, dated 1991):
“And” between values parts separate entries of the source, which are not always exact repeats. Identical values can stand only once.

Legend:
[1] = solubility in 9:1 water:ethanol (HPLC of filtrate); conditions: stirred 15 hours, 0.45 μm PTFE filter, HPLC
Description: Such solubility was determined as follows: The compound in question was dissolved or suspended in absolute ethanol (250 mg solid per 1.0 ml ethanol). To the resulting solution or suspension, water (9.0 times the volume of ethanol) was added. This suspension was stirred vigorously for 15 hours, then filtered through a 0.45 μm poly(tetrafluoroethylene) (PTFE) filter. […] The HPLC system was as follows:
Column PLRP-S, 5μm, obtained from Polymer Laboratories, Inc.
Mobile Phase 9:1 acetonitrile:0.1% tetra-n-butylammonium hydrogen sulfate (50° C., 1.0 ml-min-^-1)
Detection Ultraviolet (250 nm)

P388 leukemia = experiment: ip P388 leukemia mouse model; type: in vivo, mice (B6D2F1); conditions: for MTD (maximally tolerated dose): B6D2F female mice, ip qDX5; for ILS max (maximum increase in lifespan): mice bearing ip P388 leukemia, ip days 1-5 at MTD, slash-separated figures are separate experiments
Description: This tumor system is widely accepted as an antitumor agent screening tool because it is sensitive to virtually all of the clinically active antineoplastic agents; quantitative and reproducible; amenable for large-scale screening; and predictive for activity in other animal tumor models.
10^6 P388 leukemia cells are inoculated ip in B6D2F1 mice. Twenty-four hours later, if the tumor inoculum proves to be free of bacterial contamination (as determined by 24 hours incubation in thioglycollate broth), animals are randomized into groups of 6 and housed in shoebox cages. […] An equal volume of saline or water is added; if the drug comes out of solution an equal volume of Cremophor (polyethoxylated castor oil) is added and then saline or water, as to a concentration such that the desired dose is delivered in 0.5 ml. The final concentration of DMA, ethanol or Cremophor is 10 percent. Dilutions for lower doses are made with saline or water so that there is a decreasing proportion of organic solvents in the vehicle with decreasing dosage. […] Formulations are prepared immediately prior to injection. The Formula (I) and Formula (II) compounds are administered ip on Days 1 through 5 (i.e., treatment is initiated 24 hrs after tumor inoculation). Each experiment includes three groups of 6 animals as untreated controls and animals treated with a positive control, cisplatin, at two dose levels. Animals are weighed as a group on Days 1, 5 and 9 and average weight change (Δwt.) is used as a reflection of toxicity. Each experiment also includes an inoculum titration--groups of 8 mice inoculated ip with 10^5 to 10^0 P388 leukemia cells. The titration is used as a quality control check for the performance of the tumor model. Animals are monitored daily for mortality and experiments are terminated after 45 days. The endpoint is median survival time (MST) and increase in lifespan (ILS) which is the percentage of increase in MST relative to untreated controls.

B16 melanoma = experiment: in vivo ip B16 melanoma assay; design: species or system mice (B6D2F1); conditions: ip qDX10; for MTD (maximally tolerated dose): B6D2F1 mice; for ILS (maximum increase in lifespan): mice bearing ip B16 melanoma, slash-separated figures are separate experiments
Description: Daily treatment is begun 24 hours after tumor implantation and is continued daily for ten (10) days. The route of drug administration is ip. The mice are monitored daily for survival for sixty (60) days. Antitumor activity is assessed by prolongation of median survival time. An ILS of ≥25% indicates activity in this tumor model.
^(b) maximally tolerated dose for B6D2F1 mice on an ip qDX10
^(c) maximum increase in lifespan produced in mice bearing ip B16

Compound | Solubility in 9:1 Water:Ethanol [1] | MTD (maximally tolerated dose) (P388 leukemia) | ILS max (maximum increase in lifespan) (P388 leukemia) | MTD (maximally tolerated dose) (B16 melanoma) | ILS (maximum increase in lifespan) (B16 melanoma)
O=[N+]([O-])[O-].[Au+].c1ccc(P(CCP(c2ccccc2)c2ccccc2)c2ccccc2)cc1.c1ccc(P(CCP(c2ccccc2)c2ccccc2)c2ccccc2)cc1 [compound 5, Bis[1,2-bis(diphenylphosphino)ethane]Gold(I) Nitrate] | 30 µg/mL | 3 mg/kg | 90 ± 17% | – | –
Fc1cccc(P(CCP(c2cccc(F)c2)c2cccc(F)c2)c2cccc(F)c2)c1.Fc1cccc(P(CCP(c2cccc(F)c2)c2cccc(F)c2)c2cccc(F)c2)c1.[Au+].[Cl-] [compound 7, Bis[1,2-bis[bis(. Phosphino]ethane]Gold(I) Chloride] | – | – | 45% and 55% | – | –
CCP(CC)CCP(c1ccccc1)c1ccccc1.CCP(CC)CCP(c1ccccc1)c1ccccc1.[Cl-].[Cu+] [compound 9] | – | 1.5 mg/kg | 48% and 45% | – | –
CCP(CC)CCP(CC)CC.CCP(CC)CCP(CC)CC.F[P-](F)(F)(F)(F)F.[Au+] [compound 10, Bis[1,2-bis(diethylphosphino)ethane]Gold(I) Hexafluorophosphate] | – | 4 mg/kg | 40% and 30% | – | –
[Cl-].[Cu+].c1ccc(P(CCCP(c2ccccc2)c2ccccc2)c2ccccc2)cc1.c1ccc(P(CCCP(c2ccccc2)c2ccccc2)c2ccccc2)cc1 [compound 12, Bis[1,3-bis(diphenylphosphino)propane]Copper(I) Chloride] | – | 2 mg/kg | 92 ± 15% | 1 mg/kg | 32% and 47%
CS(=O)(=O)[O-].[Au+].c1ccc(P(CCP(c2ccccc2)c2ccccc2)c2ccccc2)cc1.c1ccc(P(CCP(c2ccccc2)c2ccccc2)c2ccccc2)cc1 [compound 14, Bis[1,2-bis(diphenylphosphino)ethane]gold(I) methanesulfonate] | 30 µg/mL | 2 mg/kg | 81 ± 17% | – | –
CC(O)C(=O)[O-].[Au+].c1ccc(P(CCP(c2ccccc2)c2ccccc2)c2ccccc2)cc1.c1ccc(P(CCP(c2ccccc2)c2ccccc2)c2ccccc2)cc1 [compound 15, Bis[1,2-bis(diphenylphosphino)ethane]gold(I) 2-hydroxypropanoate] | 5200 µg/mL | 2 mg/kg | 71 ± 12% | 1.5 mg/kg | 30%
O=C([O-])C1OC(O)C(O)C(O)C1O.[Au+].c1ccc(P(CCP(c2ccccc2)c2ccccc2)c2ccccc2)cc1.c1ccc(P(CCP(c2ccccc2)c2ccccc2)c2ccccc2)cc1 [compound 16, Bis[1,2-bis(diphenylphosphino)ethane]gold(I) glucuronate] | 300 µg/mL | 2 mg/kg | 64 ± 17% | 1.5 mg/kg | 40%
O=S(=O)([O-])[O-].c1ccc([PH]2(c3ccccc3)CC[PH](c3ccccc3)(c3ccccc3)[Au+]23[PH](c2ccccc2)(c2ccccc2)CC[PH]3(c2ccccc2)c2ccccc2)cc1.c1ccc([PH]2(c3ccccc3)CC[PH](c3ccccc3)(c3ccccc3)[Au+]23[PH](c2ccccc2)(c2ccccc2)CC[PH]3(c2ccccc2)c2ccccc2)cc1 (centres unmarked) [compound 17, Bis{bis[1,2-bis(diphenylphosphino)ethane]gold(I)} sulfate] | 30 µg/mL | 2 mg/kg | 74% and 50% | – | –
N#C[O-].[Au+].c1ccc(P(CCP(c2ccccc2)c2ccccc2)c2ccccc2)cc1.c1ccc(P(CCP(c2ccccc2)c2ccccc2)c2ccccc2)cc1 [compound 18, Bis[1,2-bis(diphenylphosphino)ethane]gold(I) cyanate] | 60 µg/mL | 2 mg/kg | 84% and 50% | – | –
O=S(=O)([O-])C(F)(F)F.[Au+].c1ccc(P(CCP(c2ccccc2)c2ccccc2)c2ccccc2)cc1.c1ccc(P(CCP(c2ccccc2)c2ccccc2)c2ccccc2)cc1 [compound 20, Bis[1,2-bis(diphenylphosphino)ethane]gold(I) trifluoromethanesulfonate] | 20 µg/mL | 2 mg/kg | 63% and 75% | – | –
CC(=O)C(=O)[O-].[Au+].c1ccc(P(CCP(c2ccccc2)c2ccccc2)c2ccccc2)cc1.c1ccc(P(CCP(c2ccccc2)c2ccccc2)c2ccccc2)cc1 [compound 21, Bis[1,2-bis(diphenylphosphino)ethane]gold(I) 2-oxopropanoate] | 200 µg/mL | 2 mg/kg | 60% and 50% | – | –
O=C([O-])CCCO.[Au+].c1ccc(P(CCP(c2ccccc2)c2ccccc2)c2ccccc2)cc1.c1ccc(P(CCP(c2ccccc2)c2ccccc2)c2ccccc2)cc1 [compound 22, Bis[1,2-(diphenylphosphino)ethane]gold(I) 4-hydroxybutanoate] | 2900 µg/mL | 2 mg/kg | 65% and 70% | – | –
O=C([O-])CO.[Au+].c1ccc(P(CCP(c2ccccc2)c2ccccc2)c2ccccc2)cc1.c1ccc(P(CCP(c2ccccc2)c2ccccc2)c2ccccc2)cc1 [compound 23, Bis[1,2-bis(diphenylphosphino)ethane]gold(I) hydroxyacetate] | 8600 µg/mL | 2 mg/kg | 55% and 75% | – | –
CCC(O)C(=O)[O-].[Au+].c1ccc(P(CCP(c2ccccc2)c2ccccc2)c2ccccc2)cc1.c1ccc(P(CCP(c2ccccc2)c2ccccc2)c2ccccc2)cc1 [compound 24, Bis[1,2-bis(diphenylphosphino)ethane]gold(I) DL-2-hydroxybutanoate] | 900 µg/mL | 2 mg/kg | 55% and 80% | – | –
Bis[1,2-bis(diethylphosphino)ethane]Silver(I) Nitrate [compound 11] | – | 0.5 mg/kg | 50% and 40% | – | –
Bis[1,2-bis[bis(4-fluorophenyl)phosphino]ethane Gold(I) Chloride [compound 6] | – | 3 mg/kg | 55% and 50% | – | –
Tris{bis-[1,2-bis(diphenylphosphino)ethane]gold(I)} citrate [compound 19] | 30 µg/mL | 4 mg/kg | 95% and 90% | – | –
